Key:
[1] = molecular target: Delta opioid receptor (DOR) (Homo sapiens, UniProt P41143); assay: cell-based; format: cell-based
[2] = molecular target: Kappa opioid receptor (KOR) (Homo sapiens, UniProt P41145); assay: cell-based; format: cell-based
KOR = KOR (Homo sapiens, UniProt P41145); assay: cell-based; format: cell-based
Stability in rat plasma = format: in vitro ADME; conditions: both sexes, Wistar, 37° C., 100 μM peptide
Experimental: Stability in plasma was assessed in rat plasma. Plasma was collected in-house from adult mixed-gender Wistar rats, prepared using 2% EDTA as per standard practice. Peptides were added to the rat plasma samples at 37° C. in a water bath with final concentrations of 100 μM (1:9 peptide in water:plasma). The assay was then carried out in the same manner as the assay in bovine trypsin.

Stability in water = format: physicochemical; conditions: ultra-pure Milli-Q water
Experimental: Stability in water was carried out by incubating each candidate in ultra-pure, Milli-Q water (Millipore Corporation). Again, volumes, times and preparation protocols were exactly as described above in plasma stability method above.

KOPr = KOPr (Homo sapiens, UniProt P41145); format: cell-based
[3] = molecular target: T1, bovine pancreatic trypsin (Bos taurus, UniProt P00760); assay: Stability in bovine trypsin; format: in vitro ADME; conditions: bovine pancreatic trypsin solution; bovine pancreatic trypsin 2.5 μg/mL, NH4HCO3 buffer pH 8-8.5, 37° C., 100 μM peptide
T1 construct: from tissue; host or cells: bovine pancreas
T1 sequence (P00760 24-246): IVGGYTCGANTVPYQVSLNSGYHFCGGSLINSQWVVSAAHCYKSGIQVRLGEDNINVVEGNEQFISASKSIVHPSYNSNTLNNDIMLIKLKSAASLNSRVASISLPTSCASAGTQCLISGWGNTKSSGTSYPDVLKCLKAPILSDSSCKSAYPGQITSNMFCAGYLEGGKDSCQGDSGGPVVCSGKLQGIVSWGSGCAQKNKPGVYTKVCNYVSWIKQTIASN
Experimental: The stability of the peptides was analysed in typsin, plasma and water. Stability of linear peptides is generally low due to rapid degradation by endogenous peptidases and proteases. While stability in bodily fluids is important, absolute stability may not be prudent or desirable due to potential build-up in vivo leading to adverse side effects, and/or hazards to the environment and recirculation of exceptionally stable compounds in waterways. Thus, compounds that are extremely stable in either plasma or typsin are not generally considered “drug-like”.
Stability in bovine trypsin was analysed for SEQ ID Nos. 2 to 7 and 11 to 17. Peptides were added to trypsin solution (bovine pancreatic trypsin 2.5 μg/mL in NH4HCO3 buffer, pH approximately 8-8.5, 37° C.) in a water bath with final concentrations of 100 μM peptide. A 50 μL sample was taken immediately and precipitated in 150 μL of cold acetonitrile (9:1 acetonitrile:water) This sample became the baseline, or t=0 min sample. The trypsin peptide mixture was immediately returned to the water bath and subsequent 50 μL samples were taken at 5, 10, 15, 30, 60 and 120 min. At each time point, the 50 μL sample was collected and immediately added to cold acetonitrile (ACN). Each sample was vortexed for 30 sec and then centrifuged at room temperature (RT) (13K rpm, 5 min). 150 μL of the supernatant was taken and directly place in a glass HPLC vial for LCMS analysis.

Mu opioid receptor (MOR) = Mu opioid receptor (MOR) (Homo sapiens, UniProt P35372); assay: cell-based; format: cell-based
Sequence of Mu opioid receptor (MOR) (P35372 whole entry): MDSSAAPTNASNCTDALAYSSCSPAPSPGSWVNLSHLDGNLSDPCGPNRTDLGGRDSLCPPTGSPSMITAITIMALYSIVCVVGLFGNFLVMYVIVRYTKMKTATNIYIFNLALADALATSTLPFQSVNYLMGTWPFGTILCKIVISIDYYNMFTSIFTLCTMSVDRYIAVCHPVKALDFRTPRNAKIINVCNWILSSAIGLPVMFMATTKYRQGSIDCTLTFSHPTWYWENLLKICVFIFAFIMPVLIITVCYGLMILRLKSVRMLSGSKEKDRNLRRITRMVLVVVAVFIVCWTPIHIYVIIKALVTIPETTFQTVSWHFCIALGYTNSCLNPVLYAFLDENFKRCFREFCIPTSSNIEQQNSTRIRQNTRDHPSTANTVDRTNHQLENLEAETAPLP

Sequence of Delta opioid receptor (DOR) (P41143 whole entry): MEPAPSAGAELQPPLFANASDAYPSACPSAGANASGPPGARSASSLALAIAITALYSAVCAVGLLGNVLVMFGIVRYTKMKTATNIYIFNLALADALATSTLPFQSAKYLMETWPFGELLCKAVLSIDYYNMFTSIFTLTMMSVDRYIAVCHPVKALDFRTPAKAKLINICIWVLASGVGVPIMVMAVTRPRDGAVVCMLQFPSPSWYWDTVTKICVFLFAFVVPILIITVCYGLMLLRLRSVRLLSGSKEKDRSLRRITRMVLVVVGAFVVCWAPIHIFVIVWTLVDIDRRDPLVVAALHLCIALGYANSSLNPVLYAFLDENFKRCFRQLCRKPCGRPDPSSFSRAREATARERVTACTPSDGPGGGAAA
Sequence of Kappa opioid receptor (KOR) (P41145 whole entry): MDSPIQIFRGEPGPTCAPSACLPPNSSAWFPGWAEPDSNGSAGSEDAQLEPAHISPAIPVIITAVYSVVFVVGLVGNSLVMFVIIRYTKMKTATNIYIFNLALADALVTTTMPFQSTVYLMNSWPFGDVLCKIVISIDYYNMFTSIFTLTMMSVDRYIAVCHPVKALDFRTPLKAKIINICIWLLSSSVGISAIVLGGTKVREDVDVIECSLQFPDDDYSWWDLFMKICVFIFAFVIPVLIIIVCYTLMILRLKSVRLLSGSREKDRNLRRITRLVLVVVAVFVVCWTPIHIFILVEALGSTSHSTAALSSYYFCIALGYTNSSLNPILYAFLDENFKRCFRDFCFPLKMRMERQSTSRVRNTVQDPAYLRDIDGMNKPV
Sequence of KOPr (P41145 whole entry): as above
Sequence of KOR (P41145 whole entry): as above

CC(C)C[C@@H](NC(=O)[C@@H](Cc1ccccc1)NC(=O)[C@H](N)Cc1ccccc1)C(=O)N[C@H](CCCCN)C(=O)N1CCC(N)(C(=O)O)CC1 [SEQ ID NO. 35, DPhe-DPhe-DLeu-DLys-Cap-CO2H, reference compound]
EC50 [1]: > 10 µM
cAMP assay DOR 1 μM [1]: −5.72
cAMP assay DOR 10 μM [1]: 3.27
cAMP assay KOR 1 μM [2]: 25.93
cAMP assay KOR 10 μM [2]: 34.61
KOR desensitisation (change of cAMP maximal response after pre-treatment) (KOR): significant reduction maximal effect
half-life at 100 µM (Stability in rat plasma): 10.8 h
half-life at 100 µM (Stability in water): > 16.7 h
bias factor (β) relative to U50488H (KOPr): no bias either way
pERK1/2 activity (KOPr): time and concentration dependent pERK expression
half-life at 100 µM [3]: 17.6 h
EC50 (Mu opioid receptor (MOR)): > 10 µM
cAMP assay MOR 1 μM (Mu opioid receptor (MOR)): 0.37
cAMP assay MOR 10 μM (Mu opioid receptor (MOR)): 8.07

Reference: patent publication US20240301023A1 (priority 2020, published 2024)
